{"source": "patent US20120220562A1", "about": "“Anti-Viral Compounds” (ABBOTT LABAORATORIES, priority 2011, published 2012)"}
{"tested_on": "HCV 1b-Con1 replicon", "assay": "HCV 1b-Con1 replicon assay in the presence of 5% FBS", "type": "cell-based", "settings": "Hepatitis C virus", "units": {"EC50": "nM"}}
{"compound": "COC(=O)N[C@H](C(=O)N1CCC[C@H]1c1nc2ccc([C@H]3CC[C@H](c4ccc5nc([C@@H]6CCCN6C(=O)[C@@H](NC(=O)OC)C(C)C)[nH]c5c4)N3c3cc(F)c(N4CC(C)CC(C)C4)c(F)c3)cc2[nH]1)C(C)C", "note": "(stereo partly drawn) [Example 5.7, methyl {(2S)-1-[(2S)-2-{6-[(2R,5R)-1-[4-(3,5-dimethylpiperidin-1-yl)-3,5-difluorophenyl]-5-{2-[(2S)-1-{(2S)-2-[(methoxycarbonyl)amino]-3-methylbutanoyl}pyrrolidin-2-yl]-1H-benzimidazol-6-yl}pyrrolidin-2-yl]-1H-benzimidazol-2-yl}pyrrolidin-1-yl]-3-methyl-1-oxobutan-2-yl}carbamate]", "EC50": "< 0.1"}
{"compound": "COC(=O)N[C@H](C(=O)N1CCC[C@H]1c1nc2cc([C@H]3CC[C@H](c4ccc5[nH]c([C@@H]6CCCN6C(=O)[C@@H](NC(=O)OC)C(C)C)nc5c4)N3c3cc(F)c(N4CC=C(c5ccccc5)CC4)c(F)c3)ccc2[nH]1)C(C)C", "note": "[Example 5.15, methyl {(2S)-1-[(2S)-2-{5-[(2R,5R)-1-[3,5-difluoro-4-(4-phenyl-3,6-dihydropyridin-1(2H)-yl)phenyl]-5-{2-[(2S)-1-{(2S)-2-[(methoxycarbonyl)amino]-3-methylbutanoyl}pyrrolidin-2-yl]-1H-benzimidazol-5-yl}pyrrolidin-2-yl]-1H-benzimidazol-2-yl}pyrrolidin-1-yl]-3-methyl-1-oxobutan-2-yl}carbamate]", "EC50": "< 0.1"}
{"compound": "COC(=O)N[C@H](C(=O)N1CCC[C@H]1c1nc2cc([C@H]3CC[C@H](c4cc5nc([C@@H]6CCCN6C(=O)[C@@H](NC(=O)OC)C(C)C)[nH]c5cc4F)N3c3cc(F)c(N4CCC(F)(c5ccccc5)CC4)c(F)c3)c(F)cc2[nH]1)C(C)C", "note": "[Example 4.62, methyl {(2S)-1-[(2S)-2-{5-[(2R,5R)-1-[3,5-difluoro-4-(4-fluoro-4-phenylpiperidin-1-yl)phenyl]-5-{6-fluoro-2-[(2S)-1-{(2S)-2-[(methoxycarbonyl)amino]-3-methylbutanoyl}pyrrolidin-2-yl]-1H-benzimidazol-5-yl}pyrrolidin-2-yl]-6-fluoro-1H-benzimidazol-2-yl}pyrrolidin-1-yl]-3-methyl-1-oxobutan-2-yl}carbamate]", "EC50": "< 0.1"}
{"compound": "COC(=O)N[C@H](C(=O)N1CCC[C@H]1c1nc2cc([C@H]3CC[C@H](c4cc5nc([C@@H]6CCCN6C(=O)[C@@H](NC(=O)OC)C(C)C)[nH]c5cc4F)N3c3ccc(N4CCCCC4)c(F)c3)c(F)cc2[nH]1)C(C)C", "note": "[Example 6.9, methyl {(2S)-1-[(2S)-2-(6-fluoro-5-{(2R,5R)-5-{6-fluoro-2-[(2S)-1-{(2S)-2-[(methoxycarbonyl)amino]-3-methylbutanoyl}pyrrolidin-2-yl]-1H-benzimidazol-5-yl}-1-[3-fluoro-4-(piperidin-1-yl)phenyl]pyrrolidin-2-yl}-1H-benzimidazol-2-yl)pyrrolidin-1-yl]-3-methyl-1-oxobutan-2-yl}carbamate]", "EC50": "< 0.1"}
{"compound": "COC(=O)N[C@H](C(=O)N1CCC[C@H]1c1nc2cc([C@@H]3CC[C@@H](c4cc5nc([C@@H]6CCCN6C(=O)[C@@H](NC(=O)OC)C(C)C)[nH]c5cc4F)N3c3cc(F)c(N4CCN(c5c(F)cccc5F)CC4)c(F)c3)c(F)cc2[nH]1)C(C)C", "note": "[Example 3.50, methyl {(2S)-1-[(2S)-2-{5-[(2S,5S)-1-{4-[4-(2,6-difluorophenyl)piperazin-1-yl]-3,5-difluorophenyl}-5-{6-fluoro-2-[(2S)-1-{(2S)-2-[(methoxycarbonyl)amino]-3-methylbutanoyl}pyrrolidin-2-yl]-1H-benzimidazol-5-yl}pyrrolidin-2-yl]-6-fluoro-1H-benzimidazol-2-yl}pyrrolidin-1-yl]-3-methyl-1-oxobutan-2-yl}carbamate]", "EC50": "< 0.1"}
{"compound": "COC(=O)N[C@H](C(=O)N1CCC[C@H]1c1nc2c(Cl)c([C@H]3CC[C@@H](c4ccc5[nH]c([C@@H]6CCCN6C(=O)[C@@H](NC(=O)OC)C(C)C)nc5c4Cl)N3c3ccc(C(C)(C)C)cc3)ccc2[nH]1)C(C)C", "note": "[Example 6.6, methyl {(2S)-1-[(2S)-2-{5-[(2R,5S)-1-(4-tert-butylphenyl)-5-{4-chloro-2-[(2S)-1-{(2S)-2-[(methoxycarbonyl)amino]-3-methylbutanoyl}pyrrolidin-2-yl]-1H-benzimidazol-5-yl}pyrrolidin-2-yl]-4-chloro-1H-benzimidazol-2-yl}pyrrolidin-1-yl]-3-methyl-1-oxobutan-2-yl}carbamate]", "EC50": "< 0.1"}
{"compound": "CCC(CC)C(NC(=O)OC)C(=O)N1CCC[C@H]1c1nc2cc([C@H]3CC[C@H](c4ccc5[nH]c([C@@H]6CCCN6C(=O)C(NC(=O)OC)C(CC)CC)nc5c4)N3c3cc(F)c(N4CCC(c5ccccc5)CC4)c(F)c3)ccc2[nH]1", "note": "(stereo partly drawn) [Example 3.29, methyl {1-[(2S)-2-{5-[(2R,5R)-1-[3,5-difluoro-4-(4-phenylpiperidin-1-yl)phenyl]-5-{2-[(2S)-1-{3-ethyl-2-[(methoxycarbonyl)amino]pentanoyl}pyrrolidin-2-yl]-1H-benzimidazol-5-yl}pyrrolidin-2-yl]-1H-benzimidazol-2-yl}pyrrolidin-1-yl]-3-ethyl-1-oxopentan-2-yl}carbamate]", "EC50": "< 0.1"}
{"compound": "COC(=O)N[C@H](C(=O)N1CCC[C@H]1c1nc2ccc([C@H]3CC[C@H](c4ccc5nc([C@@H]6CCCN6C(=O)[C@@H](NC(=O)OC)C(C)C)[nH]c5c4)N3c3cc(F)c(N4CCC(C)CC4)c(F)c3)cc2[nH]1)C(C)C", "note": "[Example 2.9, methyl {(2S)-1-[(2S)-2-{6-[(2R,5R)-1-[3,5-difluoro-4-(4-methylpiperidin-1-yl)phenyl]-5-{2-[(2S)-1-{(2S)-2-[(methoxycarbonyl)amino]-3-methylbutanoyl}pyrrolidin-2-yl]-1H-benzimidazol-6-yl}pyrrolidin-2-yl]-1H-benzimidazol-2-yl}pyrrolidin-1-yl]-3-methyl-1-oxobutan-2-yl}carbamate]", "EC50": "< 0.1"}
{"compound": "COC(=O)N[C@H](C(=O)N1CCC[C@H]1c1nc2cc([C@H]3CC[C@H](c4ccc5[nH]c([C@@H]6CCCN6C(=O)[C@@H](NC(=O)OC)C(C)C)nc5c4)N3c3ccc(Cl)c(F)c3)ccc2[nH]1)C(C)C", "note": "[Example 2.2, methyl {(2S)-1-[(2S)-2-{5-[(2R,5R)-1-(4-chloro-3-fluorophenyl)-5-{2-[(2S)-1-{(2S)-2-[(methoxycarbonyl)amino]-3-methylbutanoyl}pyrrolidin-2-yl]-1H-benzimidazol-5-yl}pyrrolidin-2-yl]-1H-benzimidazol-2-yl}pyrrolidin-1-yl]-3-methyl-1-oxobutan-2-yl}carbamate]", "EC50": "< 0.1"}
{"compound": "COC(=O)N[C@H](C(=O)N1CCC[C@H]1c1nc2ccc([C@H]3CC[C@H](c4ccc5nc([C@@H]6CCCN6C(=O)[C@@H](NC(=O)OC)C(C)C)[nH]c5c4)N3c3cc(F)c(N4CCC(c5ccccn5)CC4)c(F)c3)cc2[nH]1)C(C)C", "note": "[Example 2.13, methyl {(2S)-1-[(2S)-2-{5-[(2R,5R)-1-{3,5-difluoro-4-[4-(pyridin-2-yl)piperidin-1-yl]phenyl}-5-{2-[(2S)-1-{(2S)-2-[(methoxycarbonyl)amino]-3-methylbutanoyl}pyrrolidin-2-yl]-1H-benzimidazol-5-yl}pyrrolidin-2-yl]-1H-benzimidazol-2-yl}pyrrolidin-1-yl]-3-methyl-1-oxobutan-2-yl}carbamate]", "EC50": "< 0.1"}
{"compound": "COC(=O)N[C@H](C(=O)N1CCC[C@H]1c1nc2cc([C@H]3CC[C@H](c4ccc5[nH]c([C@@H]6CCCN6C(=O)[C@@H](NC(=O)OC)C(C)C)nc5c4)N3c3cc(F)c(N4[C@H](C)CCC[C@@H]4C)c(F)c3)ccc2[nH]1)C(C)C", "note": "[Example 4.6, methyl {(2S)-1-[(2S)-2-{5-[(2R,5R)-1-{4-[(2R,6S)-2,6-dimethylpiperidin-1-yl]-3,5-difluorophenyl}-5-{2-[(2S)-1-{(2S)-2-[(methoxycarbonyl)amino]-3-methylbutanoyl}pyrrolidin-2-yl]-1H-benzimidazol-5-yl}pyrrolidin-2-yl]-1H-benzimidazol-2-yl}pyrrolidin-1-yl]-3-methyl-1-oxobutan-2-yl}carbamate]", "EC50": "< 0.1"}
{"compound": "COC(=O)N[C@H](C(=O)N1CCC[C@H]1c1nc2cc([C@H]3CC[C@H](c4ccc5nc([C@@H]6CCCN6C(=O)[C@@H](NC(=O)OC)C(C)C)[nH]c5c4)N3c3cc(F)c(N4CCCC(c5ccccc5)C4)c(F)c3)ccc2[nH]1)C(C)C", "note": "(stereo partly drawn) [Example 4.32, methyl {(2S)-1-[(2S)-2-{5-[(2R,5R)-1-[3,5-difluoro-4-(3-phenylpiperidin-1-yl)phenyl]-5-{2-[(2S)-1-{(2S)-2-[(methoxycarbonyl)amino]-3-methylbutanoyl}pyrrolidin-2-yl]-1H-benzimidazol-6-yl}pyrrolidin-2-yl]-1H-benzimidazol-2-yl}pyrrolidin-1-yl]-3-methyl-1-oxobutan-2-yl}carbamate]", "EC50": "< 0.1"}
{"compound": "COCCOc1ccc(N2[C@@H](c3ccc4[nH]c([C@@H]5CCCN5C(=O)[C@@H](NC(=O)OC)C(C)C)nc4c3)CC[C@@H]2c2ccc3[nH]c([C@@H]4CCCN4C(=O)[C@@H](NC(=O)OC)C(C)C)nc3c2)cc1", "note": "[Example 3.3, methyl {(2S)-1-[(2S)-2-(5-{(2R,5R)-5-{2-[(2S)-1-{(2S)-2-[(methoxycarbonyl)amino]-3-methylbutanoyl}pyrrolidin-2-yl]-1H-benzimidazol-5-yl}-1-[4-(2-methoxyethoxy)phenyl]pyrrolidin-2-yl}-1H-benzimidazol-2-yl)pyrrolidin-1-yl]-3-methyl-1-oxobutan-2-yl}carbamate]", "EC50": "0.1 to 1"}
{"compound": "COC(=O)N[C@H](C(=O)N1CCC[C@H]1c1nc2c(Cl)c([C@H]3CC[C@H](c4ccc5[nH]c([C@@H]6CCCN6C(=O)[C@@H](NC(=O)OC)C(C)C)nc5c4Cl)N3c3ccc(C(C)(C)C)cc3)ccc2[nH]1)C(C)C", "note": "[Example 6.5, methyl {(2S)-1-[(2S)-2-{5-[(2R,5R)-1-(4-tert-butylphenyl)-5-{4-chloro-2-[(2S)-1-{(2S)-2-[(methoxycarbonyl)amino]-3-methylbutanoyl}pyrrolidin-2-yl]-1H-benzimidazol-5-yl}pyrrolidin-2-yl]-4-chloro-1H-benzimidazol-2-yl}pyrrolidin-1-yl]-3-methyl-1-oxobutan-2-yl}carbamate]", "EC50": "< 0.1"}
